Assays:
[1] = target: T1, human macrophage elastase (HME/hMMP-12) (Homo sapiens, UniProt P39900); assay: In vitro HME inhibition test (standard or high-sensitivity); assay type: biochemical; details: in some cases mean values, rounded to two significant figures
T1 construct: purchased R&D Systems 917-MP
Outline: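 Autoactivated HME (0.5 nM; high-sensitivity format 0.05 nM, ~16 h) with 5 μM quenched Mca-PLGLEEA-Dap(Dnp)-NH2 substrate in HEPES pH 7.4, NaCl, CaCl2, ZnCl2, EDTA, Brij buffer, 2 h at 37° C. Fluorescence at ex 323/em 393 nm; IC50 from signal versus concentration.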

rat hepatocytes = assay: Hepatocyte assay for determination of metabolic stability; assay type: in vitro ADME; details: after incubation with rat hepatocytes
Experimental: The metabolic stability of test compounds towards hepatocytes is determined by incubating the compounds at low concentrations (preferably below or around 1 μM) and at low cell counts (preferably at 1*10^6 cells/ml) in order to ensure maximum linearity of kinetic conditions in the experiment. Seven samples from the incubation solution are taken for the LC-MS analysis within a fixed time pattern, in order to determine the half-life (i.e. the degradation) of the particular compound. This half-life is used to calculate various “Clearance” parameters (CL) and “Fmax” values (see below).
The CL and Fmax values are a measure of the phase 1 and phase 2 metabolism of the compounds in the hepatocytes. In order to minimize the influence of the organic solvent on the enzymes in the incubation batches, the concentration thereof is generally limited to 1% (acetonitrile) or 0.1% (DMSO).
For all species and breeds, a hepatocyte cell count in the liver of 1.1*10^8 cells/g of liver is expected.

T1 sequence (P39900 106-470): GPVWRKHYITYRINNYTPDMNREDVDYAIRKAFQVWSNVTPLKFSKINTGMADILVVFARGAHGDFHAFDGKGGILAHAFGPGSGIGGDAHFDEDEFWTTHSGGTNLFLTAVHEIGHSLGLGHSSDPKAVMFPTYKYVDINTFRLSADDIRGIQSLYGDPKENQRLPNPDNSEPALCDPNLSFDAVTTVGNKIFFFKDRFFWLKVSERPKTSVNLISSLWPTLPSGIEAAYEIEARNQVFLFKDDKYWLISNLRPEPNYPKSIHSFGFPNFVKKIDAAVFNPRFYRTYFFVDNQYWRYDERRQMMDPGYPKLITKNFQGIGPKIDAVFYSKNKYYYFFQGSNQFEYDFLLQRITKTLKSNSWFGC

| Compound | IC50 [1] | CLblood (calculated blood clearance, well-stirred) (rat hepatocytes) | Fmax (maximum possible bioavailability after oral administration, well-stirred) (rat hepatocytes) |
| --- | --- | --- | --- |
| O=C(CC(CCn1nnc2ccccc2c1=O)C(=O)O)c1noc2cc(OCC3CCOCC3)ccc12 (racemic) [Example 133, (+/−)-4-Oxo-2-[2-(4-oxo-1,2,3-benzotriazin-3(4H)-yl)ethyl]-4-[6-(tetrahydro-2H-pyran-4-ylmethoxy)-1,2-benzoxazol-3-yl]butanoic acid] | 0.24 nM | 0.80 L/h/kg | 81.1% |
| O=C(CC(CCn1nnc2ccc(C(F)(F)F)cc2c1=O)C(=O)O)c1cc2ccc(OCC3CC3)cc2s1 (single isomer, unassigned; enantiomer 2) [Example 130, 4-[6-(Cyclopropylmethoxy)-1-benzothiophen-2-yl]-4-oxo-2-{2-[4-oxo-6-(trifluoromethyl)-1,2,3-benzotriazin-3(4H)-yl]ethyl}butanoic acid (enantiomer 2)] | 0.12 nM | 2.09 L/h/kg | 50.3% |

Results, then the compound that gave them:

| IC50 [1] | CLblood (calculated blood clearance, well-stirred) (rat hepatocytes) | Fmax (maximum possible bioavailability after oral administration, well-stirred) (rat hepatocytes) | Compound |
| --- | --- | --- | --- |
| 0.82 nM | 1.55 L/h/kg | 63.2% | O=C(CC(CCn1nnc2ccccc2c1=O)C(=O)O)c1coc2cc(OCc3ccc(Cl)c(Cl)c3)ccc12 (single isomer, unassigned) [Example 94, 4-{6-[(3,4-Dichlorobenzyl)oxy]-1-benzofur-3-yl}-4-oxo-2-[2-(4-oxo-1,2,3-benzotriazin-3(4H)-yl)ethyl]butanoic acid] |
| 2.1 nM | 2.14 L/h/kg | 48.9% | CCCCCOc1ccc2cc(C(=O)CC(CCn3nnc4ccccc4c3=O)C(=O)O)oc2c1 (single isomer, unassigned; (+)) [Example 57, (+)-4-Oxo-2-[2-(4-oxo-1,2,3-benzotriazin-3(4H)-yl)ethyl]-4-[6-(pentyloxy)-1-benzofur-2-yl]butanoic acid] |
| 24 nM | 1.18 L/h/kg | 71.8% | O=C(C[C@@H](CCn1nnc2ccccc2c1=O)C(=O)O)c1noc2cc(OCC3CCOCC3)ccc12 (single isomer, unassigned; enantiomer 1) [Example 134] |

From patent US20170121315A1, “HETEROBICYCLICALLY SUBSTITUTED 4-OXOBUTANE ACID DERIVATIVES AND USE THEREOF” (priority 2014, published 2017)
